This is an account of results in patent US20040192905A1, “Polymerizable monomers and process of preparation thereof” (priority 2003, published 2004).

Test [1] has as its target T1, lysozyme (Gallus gallus, UniProt P00698). Briefly: Estimation of relative inhibition of lysozyme (Micrococcus lysodeikticus substrate, absorbance at 450 nm). It is filed as biochemical. To be noted: for 1max: ligand concentration at Imax; for Imax: maximum relative inhibition of lysozyme; for pIC50: phosphate buffer pH 6.2, 20 C, Micrococcus lysodeikticus substrate, read-out: I50. As for the experimental part: This example describes the estimation of inhibition of lysozyme by monomers Micrococcus lysodeikticus is a substrate for the enzyme lysozyme. Relative binding of monomers and monomers linked to NAG through the spacer arm was estimated by using a procedure reported by Neuberger and Wilson (1967).
1 5% w/v stock solutions of monomeric ligands was prepared in […] phosphate buffer pH 6.2 containing 0.01 54 m sodium chloride and 0.008 M sodium azide. One milliliter of stock solution containing different ligand concentration was mixed with 1.6 ml of 78 Jig/ml of Micrococcus lysodeikticus in a 3-ml capacity glass cuvette. The mixture was incubated for 5 minutes at 20 0 C. To this mixture 0.1 ml of lysozyme (27 μg/ml) was added and mixed thoroughly. The relative absorbance at 450 nm (Δ450) was recorded for 30 seconds. A blank reading without the ligand was noted and the change in the absorbance per second was calculated. Then relative inhibition was calculated

Test [2] concerns the target T1, lysozyme. Briefly: Estimation of binding constant (Kb) by fluorescence spectrophotometric method. Conditions: relative to NAG. As to the method:
Estimation of binding constant (Kb) of monomers containing NAG by fluorescence spectrophotometric method and the enhancement resulting from conjugation with monomers and monomer containing spacer.
Fluorescence spectra of lysozyme were recorded on a Perkin Elmer LS-50 B luminescence spectrophotometer. Excitation frequency was 285 nm, Solutions of lysozyme and N-Acetyl Glucosamine were prepared in 0.066 M phosphate buffer pH 6.2, containing 0.0154 M sodium chloride and 0.008 M sodium azide. 0 1 milliliter of lysozyme 80 μg/ml was mixed with solution containing different ligand concentration in a 2 ml capacity 10 mm square quartz cells maintained at 18 0 C.
Phosphate buffer was added to make the volume to 2 ml. The fluorescence intensities of the solutions were measured, relative to the solutions containing enzymes and buffer mixtures of the identical concentrations reference. […]

pIC50: −log10 of the molar value.

T1 sequence (P00698 19-147): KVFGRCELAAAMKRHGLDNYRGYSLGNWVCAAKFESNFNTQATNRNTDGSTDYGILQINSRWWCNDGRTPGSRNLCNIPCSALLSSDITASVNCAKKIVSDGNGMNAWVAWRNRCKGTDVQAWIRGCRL

Regarding “Acryloyl 6-Amino Caproic Acid N-Acetyl Glucosamine [Ac 6ACA.NAG]”, in test [1], the “1max” value is 0.036 mM, the Imax is 52.5 and the pIC50 was 4.46.
The matching figures for `CC(=O)N[C@H]1C(O)O[C@H](CO)[C@@H](O)[C@@H]1O` (stereo partly shown) [NAG, N-Acetyl Glucosamine, reference compound]: 92.5 mM, 55.29 and 1.13.
Regarding `C=CC(=O)OC[C@H]1OC(O)[C@H](NC(C)=O)[C@@H](O)[C@@H]1O` (stereo partly shown) [Ac. NAG, Acryloyl N-Acetyl Glacosamine], in test [2], the “increase in binding constant compared to N-Acetyl Glucosamine” value was 74 times. Further, in test [1], the “1max” value was 14.81 mM, the Imax is reported as 50.00 and the pIC50 is 1.83.
